Measured values as given in ChEMBL document CHEMBL4837181 (Eur J Med Chem, 2020).
Where a SMILES comes first, the peptide text is derived from it. [ ]: non-standard residue; d: D form. dTrp(1-Me) = Cn1cc(C[C@@H](N)C(=O)O)c2ccccc21

Tests used:
[1] = Chemical stability of compound in 0.1 N aqueous HCl buffer assessed as compound remaining at pH 1 at 5 uM measured after 1.5 hrs by LC-MS/MS analysis; assay type: physicochemical; details: pH 1, 1.5 h
[2] = Change in normalised Cmax in rat at 10 mg/kg, po measured upto 72 hrs by LC-MS/MS analysis; assay type: ADME, organism-based; details: in vivo
[3] = Chemical stability of compound in simulated gastric fluid assessed as compound remaining at 5 uM measured after 24 hrs by LC-MS/MS analysis; assay type: ADME, physicochemical; details: read-out: Stabilty
[4] = Stability in human plasma assessed as parent compound remaining measured after 6 hrs by LC-MS/MS analysis; assay type: ADME, cell-free; details: read-out: Stabilty
[5] = Stability in human plasma assessed as parent compound remaining measured after 24 hrs by LC-MS/MS analysis; assay type: ADME, cell-free; details: read-out: Stabilty
[6] = Dose normalized Cmax in rat at 10 mg/kg, po measured upto 72 hrs by LC-MS/MS analysis; assay type: ADME, organism-based; details: in vivo
[7] = Chemical stability of compound in simulated intestinal fluid assessed as compound remaining at 5 uM measured after 24 hrs by LC-MS/MS analysis; assay type: ADME, physicochemical; details: read-out: Stabilty
[8] = Chemical stability of compound in 0.1 N aqueous HCl buffer assessed as compound remaining at pH 1 at 5 uM measured after 24 hrs by LC-MS/MS analysis; assay type: physicochemical; details: pH 1, 24 h
[9] = Stability in mouse plasma assessed as parent compound remaining measured after 2 hrs by LC-MS/MS analysis; assay type: ADME, cell-free; details: read-out: Stabilty
[10] = Chemical stability of compound in PBS buffer assessed as compound remaining at pH 7.4 at 5 uM measured after 24 hrs by LC-MS/MS analysis; assay type: physicochemical; details: read-out: Stabilty
[11] = Dose normalized AUC (0 to infinity) in rat at 10 mg/kg, po measured upto 72 hrs by LC-MS/MS analysis; assay type: ADME, organism-based; details: in vivo
[12] = Chemical stability of compound in simulated gastric fluid assessed as compound remaining at 5 uM measured after 1.5 hrs by LC-MS/MS analysis; assay type: ADME, physicochemical; details: read-out: Stabilty
[13] = Chemical stability of compound in PBS buffer assessed as compound remaining at pH 7.4 at 5 uM measured after 6 hrs by LC-MS/MS analysis; assay type: physicochemical; details: read-out: Stabilty
[14] = Stability in rat plasma assessed as parent compound remaining measured after 2 hrs by LC-MS/MS analysis; assay type: ADME, cell-free; details: read-out: Stabilty
[15] = Change in Cmax in rat at 37 umol/kg, po measured upto 72 hrs by LC-MS/MS analysis; assay type: ADME, organism-based; details: in vivo, at 37 µmol/kg
[16] = Chemical stability of compound in simulated intestinal fluid assessed as compound remaining at 5 uM measured after 3 hrs by LC-MS/MS analysis; assay type: ADME, physicochemical; details: read-out: Stabilty
[17] = Chemical stability of compound in saline assessed as compound remaining at 5 uM measured after 24 hrs by LC-MS/MS analysis; assay type: physicochemical; details: read-out: Stabilty
[18] = Change in normalised AUCinfinity in rat at 10 mg/kg, po measured upto 72 hrs by LC-MS/MS analysis; assay type: ADME, organism-based; details: in vivo
[19] = Change in AUC (infinity) in rat at 37 umol/kg, po measured upto 72 hrs by LC-MS/MS analysis; assay type: ADME, organism-based; details: in vivo, at 37 µmol/kg

| Stabilty [1] [%] | Activity [2] [%] | remaining at 24 h, 5 µM [3] [%] | remaining at 6 h [4] [%] | remaining at 24 h [5] [%] | Cmax/dose [6] [µM] | remaining at 24 h, 5 µM [7] [%] | Stabilty [8] [%] | remaining at 2 h [9] [%] | remaining at 24 h, 5 µM [10] [%] | AUC/dose [11] [µM·h] | remaining at 1.5 h, 5 µM [12] [%] | remaining at 6 h, 5 µM [13] [%] | remaining at 2 h [14] [%] | Activity [15] [%] | remaining at 3 h, 5 µM [16] [%] | remaining at 24 h, 5 µM [17] [%] | Activity [18] [%] | Activity [19] [%] | Structure (SMILES) |
| --- | --- | --- | --- | --- | --- | --- | --- | --- | --- | --- | --- | --- | --- | --- | --- | --- | --- | --- | --- |
| 37 | 92 | 58 | 33 | 11 | 33.3 | 10 | 99 | 0 | 29 | 595 | 62 | 50 | 0 | 28 | 34 | 99 | 17 | 21 | Cl.Cn1cc(C[C@@H](N)C(=O)OCC(O)CO)c2ccccc21 (some centres undefined) |
| 89 | -3 | 92 | 96 | 78 | 16.7 | 96 | 100 | 77 | 57 | 795 | 97 | 93 | 95 | 8 | 96 | 100 | 56 | -10 | Cl.Cn1cc(C[C@@H](NC(=O)[C@@H](N)CCCCN)C(=O)O)c2ccccc21 |
| 64 | 62 | 78 | 78 | 68 | 28 | 38 | 99 | 100 | 65 | 599 | 80 | 83 | 56 | 10 | 64 | 99 | 18 | 1 | Cl.Cn1cc(C[C@@H](NC(=O)CN)C(=O)O)c2ccccc21 (H-Gly-[dTrp(1-Me)]-OH) |
| 98 | -18 | 50 | 79 | 47 | 14.2 | 76 | 99 | 57 | 44 | 338 | 55 | 91 | 9 |  | 78 | 99 | -33 |  | CC(C)[C@H](N)C(=O)N[C@H](Cc1cn(C)c2ccccc12)C(=O)O.Cl |
| 3 | 128 | 2 | 10 | 2 | 39.5 | 0 | 47 | 0 | 0 | 731 | 2 | 0 | 0 |  | 0 | 47 | 44 |  | CN(C)CCOC(=O)[C@H](N)Cc1cn(C)c2ccccc12.Cl |
| 52 | -14 | 60 | 85 | 54 | 15 | 0 | 76 | 0 | 0 | 774 | 85 | 85 | 0 |  | 67 | 76 | 52 |  | Cl.Cn1cc(C[C@@H](N)C(=O)OCCC2CCOCC2)c2ccccc21 |
| 74 | -86 | 90 | 27 | 4 | 2.4 | 8 | 46 | 0 | 22 | 110 | 90 | 91 | 0 |  | 62 | 46 | -78 |  | Cl.Cn1cc(C[C@@H](N)C(=O)OCCC2CCNCC2)c2ccccc21 |
| 52 | -31 | 73 | 97 | 94 | 12 | 69 | 61 | 90 | 33 | 415 | 81 | 55 | 76 |  | 88 | 61 | -18 |  | Cl.Cn1cc(C[C@@H](NC(=O)[C@@H](N)Cc2c[nH]c3ccccc23)C(=O)O)c2ccccc21 |
| 73 | 41 | 88 | 23 | 0 | 24.4 | 1 | 85 | 0 | 17 | 806 | 108 | 67 | 0 | 12 | 70 | 85 | 58 | -1 | CCOC(=O)[C@@H](Cc1cn(C)c2ccccc12)NC(=O)[C@@H](N)CCC(N)=O.Cl |
| 95 | -26 | 97 | 75 | 16 | 12.8 | 38 | 97 | 0 | 63 | 606 | 98 | 97 | 0 |  | 91 | 97 | 19 |  | CCOC(=O)[C@@H](Cc1cn(C)c2ccccc12)NC(=O)[C@@H](N)[C@@H](C)CC.Cl |
| 92 | -28 | 77 | 84 | 86 | 12.5 | 0 | 98 | 80 | 100 | 316 | 81 | 100 | 54 |  | 94 | 98 | -38 |  | CC[C@H](C)[C@H](N)C(=O)N[C@H](Cc1cn(C)c2ccccc12)C(=O)O.Cl |
| 10 | -23 | 56 | 0 | 0 | 13.3 | 0 | 70 | 80 | 0 | 588 | 56 | 0 | 84 |  | 0 | 70 | 16 |  | Cl.Cn1cc(C[C@@H](N)C(=O)OCC(N)C(=O)O)c2ccccc21 (single isomer, unassigned) |
| 92 | 41 | 97 | 87 | 82 | 24.4 | 0 | 99 | 88 | 95 | 617 | 95 | 95 | 100 |  | 66 | 99 | 21 |  | CC(C)C[C@H](N)C(=O)N[C@H](Cc1cn(C)c2ccccc12)C(=O)O.Cl |
